Measured values published in US9302999B2, “Substituted triazoles as herbicides” (E. I. DU PONT DE NEMOURS AND COMPANY, priority 2012, dated 2016).
Read-outs that look alike come from different tables or passages of the source.

Experiments:
Type in all cases: in vivo
[1] = tested on: canarygrass (Phalaris minor); experiment: Test D pre-/postemergence: canarygrass
Method in brief: (§1)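 Visual control ratings (0–100) after 14–21 days, controlled environment. Preemergence on silt loam; postemergence on 2–18 cm plants.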

[2] = tested on: sedge, umbrella (small-flower umbrella sedge, Cyperus difformis); experiment: Test C flooded paddy test: sedge, umbrella; details: Cyperus difformis, scale 0 to 100 (0 no effect, 100 complete control), read-out: Plant response rating, Sedge, Umbrella; for pest or weed control at 125 g/ha: 125 g ai/ha; for pest or weed control at 250 g/ha: 250 g ai/ha; for pest or weed control at 31 g/ha: 31 g ai/ha; for pest or weed control at 62 g/ha: 62 g ai/ha
Method in brief: (§2)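 Plants were grown to the 2-leaf stage, pots flooded to 3 cm above soil, and test compounds applied directly to the paddy water, with that depth held throughout. After 13 to 15 days in a greenhouse, injury was visually rated against controls on a 0 (no effect) to 100 (complete control) scale.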

[3] = tested on: field poppy (Papaver rhoeas); experiment: Test D pre-/postemergence: field poppy
Method in brief: as §1

[4] = tested on: windgrass (Apera spica-venti); experiment: Test D pre-/postemergence: windgrass
Method in brief: as §1

[5] = tested on: rice (Oryza sativa); experiment: Test C flooded paddy test: rice; details: Oryza sativa, scale 0 to 100 (0 no effect, 100 complete control), read-out: Plant response rating, Rice; for plant injury at 125 g/ha: 125 g ai/ha; for plant injury at 250 g/ha: 250 g ai/ha; for plant injury at 31 g/ha: 31 g ai/ha; for plant injury at 62 g/ha: 62 g ai/ha
Method in brief: as §2

[6] = tested on: wheat, spring (spring wheat, Triticum aestivum); experiment: Test D pre-/postemergence: wheat, spring
Method in brief: as §1

[7] = tested on: deadnettle (henbit deadnettle, Lamium amplexicaule); experiment: Test D pre-/postemergence: deadnettle
Method in brief: as §1

[8] = tested on: canarygrass (Phalaris minor); experiment: Test C postemergence: canarygrass
Method in brief: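 Greenhouse pot test; foliar postemergence treatment at 1- to 4-leaf stage. Rated visually at 13 to 15 days on a 0–100 control scale relative to untreated plants.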

[9] = Postemergence, 31 g ai/ha, scale 0 to 100 (0 no effect, 100 complete control)
[10] = Postemergence, 62 g ai/ha, scale 0 to 100 (0 no effect, 100 complete control)
[11] = Postemergence, 125 g ai/ha, scale 0 to 100, 0 no effect, 100 complete control
[12] = Postemergence, 250 g ai/ha, scale 0 to 100 (0 no effect, 100 complete control)
[13] = Postemergence, 16 g ai/ha, scale 0 to 100
[14] = Preemergence, 16 g ai/ha, scale 0 to 100 (0 no effect, 100 complete control)
[15] = Preemergence, 31 g ai/ha, scale 0 to 100 (0 no effect, 100 complete control)
[16] = Preemergence, 62 g ai/ha, scale 0 to 100
[17] = Preemergence, 125 g ai/ha, scale 0 to 100
[18] = Preemergence, 250 g ai/ha, scale 0 to 100
[19] = Flood (flooded paddy test), visual rating after 13 to 15 days
[20] = 31 g ai/ha, scale 0 to 100 (0 no effect, 100 complete control)
[21] = 62 g ai/ha, scale 0 to 100 (0 no effect, 100 complete control)
[22] = 125 g ai/ha, scale 0 to 100, 0 no effect, 100 complete control

Cc1nn(-c2ccc(F)cc2)nc1Oc1ccnc(C(F)(F)F)c1 [Compound 129, 4-[[2-(4-fluorophenyl)-5-methyl-2H-1,2,3-triazol-4-yl]oxy]-2-(trifluoromethyl)pyridine]
Plant response rating: Canarygrass [1, 9]: 10 | Plant response rating: Canarygrass [1, 10]: 15 | Plant response rating: Canarygrass [1, 11]: 70 | Plant response rating: Canarygrass [1, 12]: 80 | Plant response rating, Canarygrass [1, 13]: 10 | Plant response rating, Canarygrass [1, 14]: 0 | Plant response rating, Canarygrass [1, 15]: 15 | Plant response rating, Canarygrass [1, 16]: 100 | Plant response rating, Canarygrass [1, 17]: 100 | Plant response rating, Canarygrass [1, 18]: 100 | pest or weed control at 125 g/ha [2, 19]: 85% | pest or weed control at 250 g/ha [2, 19]: 95% | pest or weed control at 31 g/ha ([2]; Flood): 75% | pest or weed control at 62 g/ha ([2]; Flood): 75% | Plant response rating: Field Poppy [3, 9]: 100 | Plant response rating: Field Poppy [3, 10]: 100 | Plant response rating: Field Poppy [3, 11]: 100 | Plant response rating: Field Poppy [3, 12]: 85 | Plant response rating, Field Poppy [3, 13]: 100 | Plant response rating, Field Poppy [3, 14]: 0 | Plant response rating, Field Poppy [3, 15]: 75 | Plant response rating, Field Poppy [3, 16]: 70 | Plant response rating, Field Poppy [3, 17]: 100 | Plant response rating, Field Poppy [3, 18]: 100 | Plant response rating: Windgrass [4, 9]: 20 | Plant response rating: Windgrass [4, 10]: 30 | Plant response rating: Windgrass [4, 11]: 70 | Plant response rating: Windgrass [4, 12]: 95 | Plant response rating, Windgrass [4, 13]: 15 | Plant response rating, Windgrass [4, 14]: 0 | Plant response rating, Windgrass [4, 15]: 0 | Plant response rating, Windgrass [4, 16]: 10 | Plant response rating, Windgrass [4, 17]: 75 | Plant response rating, Windgrass [4, 18]: 100 | plant injury at 125 g/ha [5, 19]: 40% | plant injury at 250 g/ha [5, 19]: 50% | plant injury at 31 g/ha ([5]; Flood): 20% | plant injury at 62 g/ha ([5]; Flood): 30% | Plant response rating: Wheat, Spring [6, 9]: 10 | Plant response rating: Wheat, Spring [6, 10]: 10 | Plant response rating: Wheat, Spring [6, 11]: 15 | Plant response rating: Wheat, Spring [6, 12]: 20 | Plant response rating, Wheat, Spring [6, 13]: 5 | Plant response rating, Wheat, Spring [6, 14]: 0 | Plant response rating, Wheat, Spring [6, 15]: 0 | Plant response rating, Wheat, Spring [6, 16]: 0 | Plant response rating, Wheat, Spring [6, 17]: 5 | Plant response rating, Wheat, Spring [6, 18]: 15 | Plant response rating: Deadnettle [7, 9]: 75 | Plant response rating: Deadnettle [7, 10]: 80 | Plant response rating: Deadnettle [7, 11]: 98 | Plant response rating: Deadnettle [7, 12]: 100 | Plant response rating, Deadnettle [7, 13]: 60 | Plant response rating, Deadnettle [7, 14]: 0 | Plant response rating, Deadnettle [7, 15]: 10 | Plant response rating, Deadnettle [7, 16]: 100 | Plant response rating, Deadnettle [7, 17]: 100 | Plant response rating, Deadnettle [7, 18]: 100 | Plant response rating, Canarygrass [8, 20]: 30 | Plant response rating, Canarygrass [8, 21]: 45 | Plant response rating, Canarygrass [8, 22]: 50 | Plant response rating, Canarygrass ([8]; 250 g ai/ha, scale 0 to 100): 85

Cc1nn(-c2ccc(F)cc2)nc1Cc1ccnc(C(F)(F)F)c1 [Compound 16, 4-[[2-(4-fluorophenyl)-5-methyl-2H-1,2,3-triazol-4-yl]methyl]-2-(trifluoromethyl)pyridine]
Plant response rating: Canarygrass [1, 9]: 30 | Plant response rating: Canarygrass [1, 10]: 35 | Plant response rating: Canarygrass [1, 11]: 40 | Plant response rating: Canarygrass [1, 12]: 80 | Plant response rating, Canarygrass [1, 13]: 20 | Plant response rating, Canarygrass [1, 14]: 20 | Plant response rating, Canarygrass [1, 15]: 40 | Plant response rating, Canarygrass [1, 16]: 50 | Plant response rating, Canarygrass [1, 17]: 90 | Plant response rating, Canarygrass [1, 18]: 100 | pest or weed control at 62 g/ha [2, 19]: 90% | pest or weed control at 125 g/ha [2, 19]: 95% | pest or weed control at 250 g/ha [2, 19]: 95% | pest or weed control at 31 g/ha ([2]; Flood): 80% | Plant response rating: Field Poppy [3, 9]: 100 | Plant response rating: Field Poppy [3, 10]: 100 | Plant response rating: Field Poppy [3, 11]: 100 | Plant response rating: Field Poppy [3, 12]: 100 | Plant response rating, Field Poppy [3, 13]: 0 | Plant response rating, Field Poppy [3, 14]: 100 | Plant response rating, Field Poppy [3, 15]: 100 | Plant response rating, Field Poppy [3, 16]: 100 | Plant response rating, Field Poppy [3, 17]: 100 | Plant response rating, Field Poppy [3, 18]: 100 | Plant response rating: Windgrass [4, 9]: 10 | Plant response rating: Windgrass [4, 10]: 20 | Plant response rating: Windgrass [4, 11]: 25 | Plant response rating: Windgrass [4, 12]: 35 | Plant response rating, Windgrass [4, 13]: 0 | Plant response rating, Windgrass [4, 14]: 20 | Plant response rating, Windgrass [4, 15]: 20 | Plant response rating, Windgrass [4, 16]: 90 | Plant response rating, Windgrass [4, 17]: 100 | Plant response rating, Windgrass [4, 18]: 100 | plant injury at 62 g/ha [5, 19]: 30% | plant injury at 125 g/ha [5, 19]: 40% | plant injury at 250 g/ha [5, 19]: 50% | plant injury at 31 g/ha ([5]; Flood): 20% | Plant response rating: Wheat, Spring [6, 9]: 10 | Plant response rating: Wheat, Spring [6, 10]: 10 | Plant response rating: Wheat, Spring [6, 11]: 15 | Plant response rating: Wheat, Spring [6, 12]: 20 | Plant response rating, Wheat, Spring [6, 13]: 5 | Plant response rating, Wheat, Spring [6, 14]: 0 | Plant response rating, Wheat, Spring [6, 15]: 0 | Plant response rating, Wheat, Spring [6, 16]: 0 | Plant response rating, Wheat, Spring [6, 17]: 5 | Plant response rating, Wheat, Spring [6, 18]: 10 | Plant response rating: Deadnettle [7, 9]: 25 | Plant response rating: Deadnettle [7, 10]: 45 | Plant response rating: Deadnettle [7, 11]: 50 | Plant response rating: Deadnettle [7, 12]: 90 | Plant response rating, Deadnettle [7, 13]: 10 | Plant response rating, Deadnettle [7, 14]: 0 | Plant response rating, Deadnettle [7, 15]: 40 | Plant response rating, Deadnettle [7, 16]: 60 | Plant response rating, Deadnettle [7, 17]: 100 | Plant response rating, Deadnettle [7, 18]: 100 | Plant response rating, Canarygrass [8, 20]: 20 | Plant response rating, Canarygrass [8, 21]: 60 | Plant response rating, Canarygrass [8, 22]: 60 | Plant response rating, Canarygrass ([8]; 250 g ai/ha, scale 0 to 100): 90
